One series deals with CYP3A4. The following applies: cited from earlier work.
The next series deals with P-glycoprotein (Pgp). Conditions: not told; cited from earlier work.
For series [1] the following is noted: human, in vivo.
For series [2] the following is noted: human, in vivo. The source holds these as a separate data set.
For series [3] the following is noted: subject 8 dosed with O-DVX, with indinavir therapy, 1 hr and 4 hrs.
For the next series, the system named is Pgp. Conditions: in vitro models; cited from earlier work.

Read-outs that look alike come from different tables or passages of the source.

Consider `CC(=O)N1CCN(c2ccc(OCC3COC(Cn4ccnc4)(c4ccc(Cl)cc4Cl)O3)cc2)CC1` (centres unmarked) [ketoconazole], for which, in the series with CYP3A4, the “reduction of N-desmethyl VX formation” value is listed as 42%.
`COc1ccc(C(CN(C)C)C2(O)CCCCC2)cc1` (centres unmarked) [VX, venlafaxine]: the “substrate of the drug transporter P-glycoprotein (Pgp)” value in the series with P-glycoprotein (Pgp) is listed as “substrates”.
For `CN(C)CC(c1ccc(O)cc1)C1(O)CCCCC1` (centres unmarked) [O-DVX, O-desmethylvenlafaxine], the “peak height ratio S- to R-enantiomer in plasma” value in series [1] was 0.50-15.2. Moreover, the “S/R ratio of peak height in plasma” value is listed as 0.83 in series [2] (1 h), 0.98 in series [2] (4 h) and “remains less than one” in series [3]. The “substrate of the drug transporter P-glycoprotein (Pgp)” value with P-glycoprotein (Pgp) is given as “substrates”.
For `CC(C)(C)NC(=O)[C@@H]1CN(Cc2cccnc2)CCN1C[C@@H](O)C[C@@H](Cc1ccccc1)C(=O)N[C@H]1c2ccccc2C[C@H]1O` [indinavir], the “inhibition of Pgp” value in the series on Pgp is recorded as “potent inhibitor”.
